# Measurements as given in PubChem BioAssay (NCI).
#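 Dose response: 5 concentrations. Exposure: 48 h. Format: 96-well plates. Endpoint: linear interpolation; highest concentration if not reached. At the TGI there is no net growth.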 Where a SMILES comes first, the peptide text is derived from it. The star is where a group is joined. X36 = O=C(c1ccc(-c2ccc(Cl)cc2Cl)o1)*
# Experiments:
# Assay in all cases: DTP human tumour cell line panel, 48 h
# A498 renal = test system: A498 renal
# BT-549 breast = test system: BT-549 breast
# CAKI-1 renal = test system: CAKI-1 renal
# HCC-2998 colon = test system: HCC-2998 colon
# HCT-116 colon = test system: HCT-116 colon
# HCT-15 colon = test system: HCT-15 colon
# HOP-92 NSCLC = test system: HOP-92 NSCLC
# HT29 colon = test system: HT29 colon
# K-562 leukemia = test system: K-562 leukemia
# MCF7 breast = test system: MCF7 breast
# OVCAR-8 ovarian = test system: OVCAR-8 ovarian
# SF-539 CNS = test system: SF-539 CNS
# SK-MEL-28 melanoma = test system: SK-MEL-28 melanoma
# SN12C renal = test system: SN12C renal
# SNB-19 CNS = test system: SNB-19 CNS
# SNB-75 CNS = test system: SNB-75 CNS
# SR leukemia = test system: SR leukemia
# TK-10 renal = test system: TK-10 renal
# U251 CNS = test system: U251 CNS
# UO-31 renal = test system: UO-31 renal
Compound,TGI (A498 renal) [µM],TGI (BT-549 breast) [µM],TGI (CAKI-1 renal) [µM],TGI (HCC-2998 colon) [µM],TGI (HCT-116 colon) [µM],TGI (HCT-15 colon) [µM],TGI (HOP-92 NSCLC) [µM],TGI (HT29 colon) [µM],TGI (K-562 leukemia) [µM],TGI (MCF7 breast) [µM],TGI (OVCAR-8 ovarian) [µM],TGI (SF-539 CNS) [µM],TGI (SK-MEL-28 melanoma) [µM],TGI (SN12C renal) [µM],TGI (SNB-19 CNS) [µM],TGI (SNB-75 CNS) [µM],TGI (SR leukemia) [µM],TGI (TK-10 renal) [µM],TGI (U251 CNS) [µM],TGI (UO-31 renal) [µM]
C=C1C(=O)CC2C(=O)C(C)(O)CC/C=C(\C)C(=O)CC12 (stereo not given),> 100,35.5,7.98,> 100,23,37.7,> 57.3,> 64.9,> 44.1,36.6,> 63.6,59.8,> 55.6,29.5,> 100,> 100,> 55.1,34.4,> 100,21.1
Cc1ccc([C@H]2CC(=O)C[C@H](c3ccc(C)cc3)C23C(=O)c2ccccc2C3=O)cc1,> 100,> 100,> 100,> 100,> 100,> 100,49.7,> 100,> 100,> 100,> 100,> 100,> 100,> 100,79.7,34.1,34.3,> 100,35.6,> 100
CCOP(=O)(OCC)c1c(C(=O)OC)cc(=O)[nH]c1-c1ccc(C)cc1,53.8,20.3,19,33.5,> 51.1,27.2,12.3,42.1,> 78.4,> 49.7,> 47.1,23,34.7,> 57,> 54.3,29.3,11.5,27.9,29.3,13.8
NCCSc1nc2ccccc2c(=O)n1-c1ccccc1,> 100,> 100,> 100,> 100,> 100,> 100,65.5,> 100,> 100,> 100,> 100,> 100,> 100,> 100,57.1,> 100,> 100,> 100,> 100,> 100
O=c1c2ncn(COCCCl)c2n(-c2ccccc2)c(=S)n1-c1ccccc1,> 100,> 100,> 100,> 100,> 100,> 100,> 100,> 100,> 100,> 100,> 100,> 100,> 100,> 100,> 100,> 100,> 100,> 100,> 100,> 100
O=c1oc2ccccc2c(Nc2ccc3c(c2)Oc2ccccc2O3)c1[N+](=O)[O-],59,64.9,> 100,62.4,> 100,> 100,35.2,> 100,> 100,47.7,37.6,36.4,50,> 100,40.4,30.2,> 100,40.1,30,> 100
CCC(C)C(NC(=O)CNC(=O)C(Cc1ccccc1)NC(=O)C1CCCN1C(=O)c1ccc(-c2ccc(Cl)cc2Cl)o1)C(=O)OC (stereo not given) (X36-PFGI-OMe; configuration not given here),54.4,> 100,> 100,64,> 100,> 100,41.9,> 100,> 100,> 100,> 100,86.6,> 100,82.6,> 100,69.4,95.6,> 100,93.5,> 100
CN(C)Cc1cc(C(=O)/C=C/c2ccccc2Cl)cc(CN(C)C)c1O,29.5,20,14.4,36.6,19.8,36,39.6,9.94,24.3,26.1,31.9,34,27.9,23.6,27.2,19.7,35.5,34.9,27,22.4
Cc1ccc(/C(O)=C/C(=O)C(=O)/C=C(\O)c2ccc(C)cc2C)c(C)c1,4.7,3.23,3.69,4.09,6.58,4.47,8.6,> 20.8,9.58,4.33,7.63,3.56,3.84,4.88,5.67,4.19,4.8,3.45,3.49,3.65
Cc1ccc2nc(Cl)c(/C=N/N3C(=O)/C(=C/c4ccccc4S)N=C3c3ccccc3)cc2c1,> 100,> 100,> 100,> 100,> 100,> 100,> 100,> 100,49,> 100,> 100,43,> 100,> 100,> 100,86.5,60.8,> 100,> 100,> 100
CN(O)C(=O)c1cccc(Cl)c1,> 100,> 100,> 100,> 100,> 100,> 100,> 100,> 100,> 100,> 100,> 100,> 100,> 100,> 100,> 100,> 100,> 100,> 100,> 100,> 100
COc1ccc(Nc2nc(NS(=O)(=O)c3cc(C)c(Cl)cc3S)n[nH]2)cc1,> 100,> 100,> 100,> 100,> 100,> 100,> 100,> 100,> 100,> 100,> 100,> 100,> 100,> 100,> 100,> 100,> 100,> 100,> 100,> 100
